Reference: patent US8044035B2, “Pharmaceutical compositions of pyrimidine-2,4,6-triones” (priority 2004, dated 2011)
Where two headings read alike, the source gives them in different places.

How the values were obtained:
[1] = Solubility of various trioxopyrimidines in the presence of HPβCD; assay type: physicochemical; conditions: HPβCD solution, 37 °C, aqueous with cosolvent or surfactant or cyclodextrin, thermodynamic from solid, read-out: Concentration (solubility)
Protocol: 1.1 Weigh 20 mg of compound I. Add 2 ml of solution of HPβCD 200 mM. Stir for 24 h at 37° C. Filter in Millipore filter Millex HV 0.45 μm. The solution obtained after filtration contains the complex compound I-CD in solution.
1.2. Weigh 2.5 mg of compound I. Add 2 ml of solution of HPβCD 200 mM. Stir at 37° C. for 24 h or until compound I is completely dissolved. The solution obtained in this way contains the complex compound I-CD.
At the time of a complex formation, compound I, practically insoluble in water (<0.6 μg/ml, MW: 485), solubilizes dramatically. The increase in the solubility of compound I is thus proof of a complex formation between Compound I and the CD. Complex formation and achievement of the equilibrium is found at 20% after 1 day, 40% after 4 days, and 100% after 7 days. The solubility diagrams (FIG. 1) are carried out by adding an excess of compound I to the CD solutions of increasing concentration. After 7 days of stirring in thermostatically controlled baths at 37° C., these solutions are filtered and the solubilized compound I quantity is dosed by HPLC. The βCD and the γCD as well as their synthetic derivatives have allowed complexes with compound I to be formed. The β-CD and the HPβCD come from ROQUETTE (France), the RMβCD and the γCD have been supplied by Wacker (Germany).
The flasks containing compound I and the cyclodextrins are placed being stirred in thermostatically controlled baths at 37° C. for 7 days, so that the complexation balance is reached. After this time, the suspensions are filtered with the help of a milli-pore filter 0.22 μm in PVDF and the filtrate is dissolved in DMSO in the mobile phase to obtain concentration samples situating themselves on the calibrating line. They are then dosed thanks to the validated HPLC method, described below.
Solubility is investigated according to Examples 1 and 2.

[2] = Differential solubility in acetonitrile of free and complexed compound I; assay type: physicochemical
Source text: Compound I has different solubility when it is in the complex form or not. […] In these conditions the included drug remains trapped and becomes insoluble in the solvent. This technique of differential solubility between compound I in the free or in the complexed form can be applied to evaluate the percentage of complexation.

| Compound | solubility ([1]; HPβCD 10 mM) | solubility ([1]; HPβCD 25 mM) | solubility ([1]; HPβCD 50 mM) | solubility ([1]; HPβCD 100 mM) | solubility ([1]; HPβCD 200 mM) | Solubility in acetonitrile [2] |
| --- | --- | --- | --- | --- | --- | --- |
| O=C1NC(=O)C(c2ccc(Oc3ccccc3)cc2)(N2CCN(c3ncccn3)CC2)C(=O)N1 [Compound II, 5-(4-Phenoxy-phenyl)-5-(4-pyrimidin-2-yl-piperazin-1-yl)-pyrimidine-2,4,6-trione] | 1300 µg/mL | 3400 µg/mL | 3800 µg/mL | 5900 µg/mL | 9300 µg/mL |  |
| O=C1NC(=O)C(c2ccc(Oc3ccc(Cl)cc3)cc2)(N2CCN(c3ncccn3)CC2)C(=O)N1 [Compound III, 5-[4-(4-Chloro-phenoxy)-phenyl]-5-(4-pyrimidin-2-yl-piperazin-1-yl)-pyrimidine-2,4,6-trione] | 800 µg/mL | 2400 µg/mL | 3100 µg/mL | 6100 µg/mL | 9500 µg/mL |  |
| O=C1NC(=O)C(c2ccc(Oc3ccc(Cl)c(Cl)c3)cc2)(N2CCN(c3ncccn3)CC2)C(=O)N1 [Compound IV, 5-[4-(3,4-Dichloro-phenoxy)-phenyl]-5-(4-pyrimidin-2-yl-piperazin-1-yl)-pyrimidine-2,4,6-trione] | 100 µg/mL | 200 µg/mL | 900 µg/mL | 2700 µg/mL | 7900 µg/mL |  |
| O=C1NC(=O)C(c2ccc(Oc3ccc(Br)cc3)cc2)(N2CCN(c3ncccn3)CC2)C(=O)N1 [Compound V, 5-[4-(4-Bromo-phenoxy)-phenyl]-5-(4-pyrimidin-2-yl-piperazin-1-yl)-pyrimidine-2,4,6-trione] | 800 µg/mL | 2400 µg/mL | 5400 µg/mL | 6600 µg/mL | 9900 µg/mL |  |
| Hydroxypropyl β-cyclodextrin [HP-β-CD] |  |  |  |  |  | insoluble |
